In patent publication US11753418B2, “Compounds for the modulation of Myc activity” (Syros Pharmaceuticals, Inc., priority 2015, dated 2023) one finds IC50 data, which are given here for 53 compounds.

For this assay, the target named is T1, c-Myc/Max/Ebox DNA (Homo sapiens, UniProt P01106).
T1 construct: his6 (cleaved yes)
The assay can be described thus: c-Myc/Max/Ebox DNA AlphaScreen Assay. It counts as binding. The settings on record: free c-Myc 20 nM, his6-Max 5 nM, biotinylated Ebox oligo 10 nM, 2 hour incubation. How it is done:
Compounds of the invention were assayed for c-Myc/Max/EBox activity as described in the following protocol. Human his6-c-Myc and his6-Max were used with biotinylated DNA containing a single Ebox sequence (biotin[…]) purchased from MWG Operon. Free c-Myc was generated from his6-c-Myc through thrombin cleavage of the his6 tag. For 384-well plate assays, 10 μL of a 2× solution of free c-Myc (20 nM final), Ni^2+ coated Acceptor Beads (25 μg/ml final), and biotinylated Ebox oligo (10 nM final) were added to 384-well plates with a Biotek EL406 liquid handler. 50 nL of compounds from stock plates were added by pin transfer using a Janus Workstation (PerkinElmer), allowing the compounds to interact with c-Myc prior to c-Myc binding with Max. In the current assay, DMSO was not allowed to exceed 2% v/v of the assay. 10 μl of 2× master mix containing streptavidin-coated donor beads (25 μg/ml final) and his6-Max (5 nM) were added. AlphaScreen measurements were performed on an Envision plate reader (PerkinElmer) utilizing the manufacturer's protocol.
Both master mixes were made in room temperature assay buffer (50 mM HEPES, 150 mM NaCl, 0.2% w/v BSA, 0.02% w/v Tween20, 40 μg/ml glycogen, 500 μM DTT, pH 8.0, wherein both DTT and glycogen were added fresh). Alpha beads were added to respective master solutions. All subsequent steps were performed in low light conditions. Solution 1: 2× solution of components with final concentrations of c-Myc Ni-coated Acceptor Beads (25 μg/ml), and biotinylated Ebox oligo (10 nM). Solution 2: 2× solution of streptavidin-coated donor beads (25 μg/ml final) and his6-Max […]. Solution 1 was added to 384-well plate (AlphaPlate-384, PerkinElmer) with Biotek EL406 liquid handler and the plates were centrifuged very briefly. 50 nL of compounds from stock plates were added by pin transfer using a Janus Workstation. Solution 2 (10 μL) was added with the liquid handler. Plates were sealed with foil to block light exposure and prevent evaporation. Plates were very briefly centrifuged followed by 2 hour incubation. AlphaScreen measurements were performed on an Envision 2104 utilizing the manufacturer's protocol. Excitation was at 680 nm for donor bead release of singlet oxygen and emission was read with a bandpass filter from 520-620 nm. Glycogen: Roche Diagnostics #10901393001. Plate 1536: Perkin Elmer, 6004350. Plate 384: Perkin Elmer, 6005350. Nickel-His Alpha Beads: 6760619R. The data from this assay are summarized in Table 3 below (Myc/Max/DNA Activity).
In general terms: Alpha assays give light when donor and acceptor beads are brought close together.

Where only a bound is given, the exact number is not on record here.

T1 sequence (P01106 whole entry): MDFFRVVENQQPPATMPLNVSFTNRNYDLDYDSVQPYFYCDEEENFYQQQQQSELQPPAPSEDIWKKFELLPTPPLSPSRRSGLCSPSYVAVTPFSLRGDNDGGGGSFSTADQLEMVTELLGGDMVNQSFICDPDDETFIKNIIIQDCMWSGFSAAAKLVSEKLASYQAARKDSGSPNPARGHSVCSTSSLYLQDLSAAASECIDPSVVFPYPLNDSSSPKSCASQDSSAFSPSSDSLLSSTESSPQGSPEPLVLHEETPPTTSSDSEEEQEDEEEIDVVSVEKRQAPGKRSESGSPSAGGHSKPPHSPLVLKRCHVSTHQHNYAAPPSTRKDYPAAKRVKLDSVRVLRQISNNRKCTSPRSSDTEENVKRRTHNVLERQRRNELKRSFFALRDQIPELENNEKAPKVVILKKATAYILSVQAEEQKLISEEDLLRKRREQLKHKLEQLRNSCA

As for `O=C(CCN1CC2(C1)CS(=O)(=O)C2)Nc1sc2c(c1-c1nc3cnccc3s1)CCNC2` [Compound 128], the IC50 (as a rule, the concentration that gives 50% inhibition) was 500 to 5000 nM.

The compound `O=C(CCNCc1cnc2ccccn12)Nc1sc2c(c1-c1nc3cnccc3s1)CCNC2` [Compound 212] registered an IC50 of 5000 to 25000 nM.

Take `O=C(CCNC1CC1)Nc1sc2c(c1-c1nc3cnccc3s1)CCNC2` [Compound 221, 3-(cyclopropylamino)-N-(3-(thiazolo[4,5-c]pyridin-2-yl)-4,5,6,7-tetrahydrothieno[2,3-c]pyridin-2-yl)propanamide]: the IC50 is under 500 nM.

`CCN1CCc2c(sc(NC(C)=O)c2-c2nc3cnccc3s2)[C@H]1C` [Compound 229, (R)—N-(6-ethyl-7-methyl-3-(thiazolo[4,5-c]pyridin-2-yl)-4,5,6,7-tetrahydrothieno[2,3-c]pyridin-2-yl)acetamide] showed an IC50 of 5000 to 25000 nM.

In turn, `Cc1nc(CN(C)CCC(=O)Nc2sc3c(c2-c2nc4cnccc4s2)CCNC3)no1` [Compound 182] yielded an IC50 of 500 to 5000 nM.

The compound `CC1CN(CCC(=O)Nc2sc3c(c2-c2nc4cnccc4s2)CCNC3)CC(=O)N1` (centres unmarked) [Compound 144] displayed an IC50 of 500 to 5000 nM.

`Cc1cc(C)n(CCNCCC(=O)Nc2sc3c(c2-c2nc4cnccc4s2)CCNC3)n1` [Compound 136] returned an IC50 of 500 to 5000 nM.

For the compound `O=C(CCN1CCCOCC1)Nc1sc2c(c1-c1nc3cnccc3s1)CCNC2` [Compound 170], the IC50 was under 500 nM.

The compound `CC(=O)Nc1sc2c(c1-c1nc3cnccc3s1)C(C)CNC2` (centres unmarked) [Compound 104, N-(4-methyl-3-(thiazolo[4,5-c]pyridin-2-yl)-4,5,6,7-tetrahydrothieno[2,3-c]pyridin-2-yl)acetamide] had an IC50 of 500 to 5000 nM.

In turn, `O=C(CCNCC1CCCC1)Nc1sc2c(c1-c1nc3cnccc3s1)CCNC2` [Compound 175] gave an IC50 of under 500 nM.

In turn, `CC(=O)Nc1sc2c(c1-c1nc3cnccc3s1)CNC2` [Compound 102, N-(3-(thiazolo[4,5-c]pyridin-2-yl)-5,6-dihydro-4H-thieno[2,3-c]pyrrol-2-yl)acetamide] showed an IC50 of 500 to 5000 nM.

Turning to `N[C@@H]1[C@H]2CN(CCC(=O)Nc3sc4c(c3-c3nc5cnccc5s3)CCNC4)C[C@@H]12` [Compound 187], the IC50 is under 500 nM.

Consider `O=C(CCN1CCn2nccc2C1)Nc1sc2c(c1-c1nc3cnccc3s1)CCNC2` [Compound 198], for which the IC50 was 500 to 5000 nM.

Consider `O=C(CCNCC1CCNC1)Nc1sc2c(c1-c1nc3cnccc3s1)CCNC2` (centres unmarked) [Compound 188], for which the IC50 is under 500 nM.

As to `O=C(CCNC1CCC1)Nc1sc2c(c1-c1nc3cnccc3s1)CCNC2` [Compound 222, 3-(cyclobutylamino)-N-(3-(thiazolo[4,5-c]pyridin-2-yl)-4,5,6,7-tetrahydrothieno[2,3-c]pyridin-2-yl)propanamide], the IC50 is under 500 nM.

On to `O=C(CCNCC12CC(CN1)C2)Nc1sc2c(c1-c1nc3cnccc3s1)CCNC2` [Compound 174], for which the IC50 is under 500 nM.

`O=C(CCN1CCC[C@@]2(CCCN2)C1)Nc1sc2c(c1-c1nc3cnccc3s1)CCNC2` [Compound 124] showed an IC50 of under 500 nM.

As to `O=C(CCN[C@H]1[C@@H]2CNC[C@@H]21)Nc1sc2c(c1-c1nc3cnccc3s1)CCNC2` [Compound 211], the concentration for half-maximal inhibition (IC50) was under 500 nM.

On to `COC1(C)CCN(CCC(=O)Nc2sc3c(c2-c2nc4cnccc4s2)CCNC3)CC1` [Compound 151], for which the IC50 is under 500 nM.

`COCC1CCCN1CCC(=O)Nc1sc2c(c1-c1nc3cnccc3s1)CCNC2` (centres unmarked) [Compound 169] registered an IC50 of under 500 nM.

As to `Cc1ccc(CNCCC(=O)Nc2sc3c(c2-c2nc4cnccc4s2)CCNC3)s1` [Compound 185], the IC50 is under 500 nM.

Compound `O=C(CCNCc1ncc[nH]1)Nc1sc2c(c1-c1nc3cnccc3s1)CCNC2` [Compound 215] returned an IC50 of under 500 nM.

In the case of `O=C(CCNCCN1CCNCC1)Nc1sc2c(c1-c1nc3cnccc3s1)CCNC2` [Compound 193], the IC50 was under 500 nM.

As to `O=C(CCNC1CCNCC1)Nc1sc2c(c1-c1nc3cnccc3s1)CCNC2` [Compound 165], the IC50 was under 500 nM.

Compound `O=C(CCN1CC2(CNC2)C1)Nc1sc2c(c1-c1nc3cnccc3s1)CCNC2` [Compound 123] had an IC50 of under 500 nM.

`CN(C)C1CN(CCC(=O)Nc2sc3c(c2-c2nc4cnccc4s2)CCNC3)C1` [Compound 161] displayed an IC50 of under 500 nM.

For the compound `CN(CCC(=O)Nc1sc2c(c1-c1nc3cnccc3s1)CCNC2)Cc1cnc(Cl)s1` [Compound 157], the half-inhibitory concentration (IC50) was in the range of 500 to 5000 nM.

The compound `O=C(CCN1CCC2(CC2)C1)Nc1sc2c(c1-c1nc3cnccc3s1)CCNC2` [Compound 127] displayed a half-inhibitory concentration (IC50) of under 500 nM.

Compound `O=C(CCNCCN1CCCCC1=O)Nc1sc2c(c1-c1nc3cnccc3s1)CCNC2` [Compound 158] displayed an IC50 of under 500 nM.

`O=C(CCN[C@@H]1C2CCC1NC2)Nc1sc2c(c1-c1nc3cnccc3s1)CCNC2` (some centres unmarked) [Compound 173] returned an IC50 of under 500 nM.

With `Cc1nc(CNCCC(=O)Nc2sc3c(c2-c2nc4cnccc4s2)CCNC3)no1` [Compound 180], the IC50 was under 500 nM.

`CC1CC1NCCC(=O)Nc1sc2c(c1-c1nc3cnccc3s1)CCNC2` (centres unmarked) [Compound 145] registered an IC50 of under 500 nM.

In turn, `O=C(CCNCC1CCC1)Nc1sc2c(c1-c1nc3cnccc3s1)CCNC2` [Compound 135] had an IC50 of under 500 nM.

In the case of `Cc1cccc2c1CCN(CCC(=O)Nc1sc3c(c1-c1nc4cnccc4s1)CCNC3)C2` [Compound 199], the IC50 lay within 500 to 5000 nM.

As to `O=C(CCNCC1(O)CC1)Nc1sc2c(c1-c1nc3cnccc3s1)CCNC2` [Compound 210], the IC50 is under 500 nM.

In the case of `CC(C)c1nc(CNCCC(=O)Nc2sc3c(c2-c2nc4cnccc4s2)CCNC3)no1` [Compound 179], the IC50 was in the range of 500 to 5000 nM.

Compound `CN(CCC(=O)Nc1sc2c(c1-c1nc3cnccc3s1)CCNC2)Cc1nc2ccccc2s1` [Compound 205] yielded an IC50 of 5000 to 25000 nM.

Regarding `O=C(CCNC1CC(O)C1)Nc1sc2c(c1-c1nc3cnccc3s1)CCNC2` (centres unmarked) [Compound 167], the IC50 is under 500 nM.

In turn, `COC(=O)CCCNCCC(=O)Nc1sc2c(c1-c1nc3cnccc3s1)CCNC2` [Compound 168] gave a 50% inhibitory concentration (IC50) of under 500 nM.

In turn, `O=C(CCN1CC2(CCOC2)C1)Nc1sc2c(c1-c1nc3cnccc3s1)CCNC2` [Compound 125] registered an IC50 of under 500 nM.

In turn, `Cc1coc(CNCCC(=O)Nc2sc3c(c2-c2nc4cnccc4s2)CCNC3)n1` [Compound 140] displayed a half-inhibitory concentration (IC50) of 500 to 5000 nM.

With `O=C(CCN1CC[C@@H]2NCC[C@@H]21)Nc1sc2c(c1-c1nc3cnccc3s1)CCNC2` [Compound 155], the IC50 was under 500 nM.

Regarding `O=C(CCNCc1[nH]nc2c1CNC2)Nc1sc2c(c1-c1nc3cnccc3s1)CCNC2` [Compound 200], the IC50 is under 500 nM.

Turning to `O=C(CCN1C[C@@H]2CC(F)(F)C[C@@H]2C1)Nc1sc2c(c1-c1nc3cnccc3s1)CCNC2` [Compound 129], the IC50 was under 500 nM.

Compound `O=C(CCN[C@H]1CC[C@@H](O)C1)Nc1sc2c(c1-c1nc3cnccc3s1)CCNC2` [Compound 204] registered a half-inhibitory concentration (IC50) of under 500 nM.

In turn, `Cc1cc(CNCCC(=O)Nc2sc3c(c2-c2nc4cnccc4s2)CCNC3)no1` [Compound 191] came in with an IC50 of 500 to 5000 nM.

Take `O=C(CCN1CCC(c2ccc(Cl)cc2)CC1)Nc1sc2c(c1-c1nc3cnccc3s1)CCNC2` [Compound 143]: the IC50 fell in the range of 500 to 5000 nM.

`O=C(CCN1CCC(OC2CCC2)CC1)Nc1sc2c(c1-c1nc3cnccc3s1)CCNC2` [Compound 149] yielded an IC50 of under 500 nM.

The compound `CN(CCC(=O)Nc1sc2c(c1-c1nc3cnccc3s1)CCNC2)Cc1ccc2[nH]ccc2c1` [Compound 214] displayed an IC50 of under 500 nM.

On to `Cc1cc(CC(C)NCCC(=O)Nc2sc3c(c2-c2nc4cnccc4s2)CCNC3)on1` (centres unmarked) [Compound 156], for which the IC50 was under 500 nM.

The compound `CCN1[C@@H](C)Cc2c(sc(NC(C)=O)c2-c2nc3cnccc3s2)[C@@H]1C` [Compound 120, N-((5S,7S)-6-ethyl-5,7-dimethyl-3-(thiazolo[4,5-c]pyridin-2-yl)-4,5,6,7-tetrahydrothieno[2,3-c]pyridin-2-yl)acetamide] returned an IC50 of 500 to 5000 nM.

The compound `CC(=O)Nc1sc2c(c1-c1nc3cnccc3s1)CCN(C(C)C)C2` [Compound 115, N-(6-isopropyl-3-(thiazolo[4,5-c]pyridin-2-yl)-4,5,6,7-tetrahydrothieno[2,3-c]pyridin-2-yl)acetamide] gave an IC50 of 500 to 5000 nM.

The compound `CC1(C)CCCN1CCC(=O)Nc1sc2c(c1-c1nc3cnccc3s1)CCNC2` [Compound 164] gave a half-inhibitory concentration (IC50) of under 500 nM.
